In article PMC7758436 (Frontiers in Veterinary Science, 2020):
Read-outs that look alike come from different tables or passages of the source.

Experiments:
[1] = test system: promastigote forms of L. (L.) amazonensis; experiment: In vitro leishmanicidal activity, growth inhibition of promastigote forms (counting in Neubauer's chamber); type: cell-based, Leishmania (Leishmania) amazonensis; conditions: value (95% CI)
Experimental: (§1) L. (L.) amazonensis (IFLA/BR/67/PH8.) was maintained as promastigote forms in Roswell Park Memorial Institute medium (RPMI 1640 medium) (Gibco, Grand Island, NY, USA), supplemented with antibiotics (penicillin 10.000 UI/mL and streptomycin […]) (Cultilab, Campinas, BR), and 10% bovine fetal serum (FBS) (Cultilab), at 25°C. L. (L.) infantum (MHOM/BR/1972/LD) was maintained as promastigote forms in M199 medium (Gibco), supplemented with 10% FBS (Cultilab), antibiotics (Cultilab), 5% human urine and 0.25% hemin (Sigma-Aldrich) at 25°C, and amastigote forms were obtained from the spleen of golden hamsters after 60 to 70 days of infection ([21]). Peritoneal murine macrophages were obtained by washing the peritoneal cavity of BALB/c mice with RPMI 1640 medium (Gibco) after 72 h of the application of 5 mL of the sodium thioglycolate (Sigma-Aldrich) at 3%, and then were cultivated in RPMI 1640 medium (Gibco) supplemented with antibiotics and 10% FBS (Gibco), at 37°C in a 5% CO2 humidified incubator.
Initially, a screening was performed against promastigote forms of L. (L.) amanzonensis. […] […], and the leishmanicidal activity was determined by the inhibition of growth of the promastigote forms by counting the total number of live promastigote in Neubauer's chamber (Global Glass, São Paulo, BR) using an optical microscope (Nikon New York, USA). […] To evaluate the leishmanicidal activity against amastigote forms, peritoneal murine macrophages were seemed (2 × 10^5 cells per well) in 24-well plates on slide chambers and incubated at 37°C for 24 h. […] The slides were stained with Giemsa (Synth, Diadema, BR), analyzed using an optical microscopy (Nikon), and the parasite load was defined by the number of infected macrophages X number of intracellular amastigotes/number of total macrophages ([23]). Parasites cultured in medium with 0.1% were used as negative control and parasites cultured in medium with MA or AmpB were used as positive controls.

[2] = In vitro hemolytic activity; type: cell-based, sheep; conditions: sheep
Experimental: (§2) Defibrinated sheep blood (Newprov, Pinhais, PR, BR) was diluted in 0.9% saline solution and a suspension at 3% of erythrocytes was transferred (100 μL) in 96-well plates. […] The hemolytic activity was determined in the cell supernatant by optical density reading at 415 nm (Libra S12–Biochrom–Cambridge, RU) Distilled water was used as a positive control, and 0.9% saline solution with 0.1% DMSO was used as negative control.

[3] = test system: amastigote forms of L. (L.) amazonensis; experiment: In vitro leishmanicidal activity against intracellular amastigote forms in peritoneal murine macrophages (Giemsa, parasite load); type: cell-based; conditions: Leishmania amazonensis, Macrophage, 48 h, value (95% CI)
Experimental: as §1
(§3) Initially, a screening was performed against promastigote forms of L. (L.) amanzonensis. […] The slides were stained with Giemsa (Synth, Diadema, BR), analyzed using an optical microscopy (Nikon), and the parasite load was defined by the number of infected macrophages X number of intracellular amastigotes/number of total macrophages ([23]). […]

[4] = In vitro cytotoxic activity, MTT assay; type: cell-based, BALB/c mice; conditions: BALB/c, mouse, 48 h, MTT, value (95% CI)
Experimental: as §1
(§4) The cells were incubated at 37°C in a 5% CO2 humidified incubator at 37°C during 48 h, and the cytotoxic activity was determined using MTT assay ([23]). Cells cultured in medium with 0.1% DMSO were used as negative control and cells cultured in medium with 25% DMSO were used as positive control.

L. (L.) donovani = conditions: 20 mg/kg of body weight per day, intraperitoneal, six consecutive days; vs untreated control; ref [11]; cited from earlier work
[5] = test system: Peritoneal murine macrophages; experiment: In vitro cytotoxic activity, MTT assay; type: cell-based, BALB/c mice
Experimental: as §1, §4

[6] = test system: Defibrinated sheep blood erythrocytes; experiment: In vitro hemolytic activity; type: cell-based; conditions: 400 μM; 30 min at 37°C
Experimental: as §2

[7] = design: method as in PMID 29698432; conditions: ref [38]; cited from earlier work
[8] = test system: amastigote forms of L. (L.) infantum; experiment: In vitro leishmanicidal activity against intracellular amastigote forms in peritoneal murine macrophages (Giemsa, parasite load); type: cell-based, Leishmania (Leishmania) infantum; conditions: 48 h, read-out: IC50 L (L.) infantum Amastigote 48 h
Experimental: as §1, §3

amastigotes = conditions: 2.5 μM, 72 h of incubation; ref [10], [11]; cited from earlier work
[9] = test system: promastigote forms of L. (L.) infantum; experiment: In vitro leishmanicidal activity, growth inhibition of promastigote forms (counting in Neubauer's chamber); type: cell-based, Leishmania (Leishmania) infantum
Experimental: as §1
Initially, a screening was performed against promastigote forms of L. (L.) amanzonensis. […] The plates were incubated at same conditions previously described during 48 h, and the leishmanicidal activity was determined by the inhibition of growth of the promastigote forms by counting the total number of live promastigote in Neubauer's chamber (Global Glass, São Paulo, BR) using an optical microscope (Nikon New York, USA). […] To evaluate the leishmanicidal activity against amastigote forms, peritoneal murine macrophages were seemed (2 × 10^5 cells per well) in 24-well plates on slide chambers and incubated at 37°C for 24 h. […] The slides were stained with Giemsa (Synth, Diadema, BR), analyzed using an optical microscopy (Nikon), and the parasite load was defined by the number of infected macrophages X number of intracellular amastigotes/number of total macrophages ([23]). Parasites cultured in medium with 0.1% were used as negative control and parasites cultured in medium with MA or AmpB were used as positive controls.

L. (L.) infantum = experiment: In vivo leishmanicidal activity in L. (L.) infantum-infected hamsters (limiting dilution); design: species or system golden hamsters (Mesocricetus auratus); conditions: for reduction of parasite burden in liver / reduction of parasite burden in spleen: intraperitoneal, eight consecutive days, vs negative control group; for survival rate / average body weight: infected hamsters; for survival rate: after the treatment (data not shown); for average body weight: among negative, LicoA and MA groups
Experimental: Male golden hamsters were infected by intraperitoneal route with 1.0 × 10^8 L. (L.) infantum amastigotes. Four weeks after infection, the animals were randomly separated in 4 groups of 6 animals each. […] Negative control group received the same number of injections of phosphate buffered saline (PBS) and animals from positive control group was treated with MA (Sanofi-Aventis) at dose 50 mg/kg of body weight during eight consecutive days by intraperitoneal route. Thirty five days after treatment the animals were sacrificed and the parasite burden was evaluated both in spleen and liver by limiting dilution method ([24]).

[10] = ref [11], cited from earlier work
[11] = Hepatotoxicity in no-infected hamsters, serum ALT and AST; type: in vivo, golden hamsters (Mesocricetus auratus); conditions: for serum levels of aminotransaminases (ALT, AST): no-infected hamsters, 15 days, vs negative control group
Experimental: After this period, serum concentrations of alanine aminotransferase (ALT) and aspartate aminotransferase (AST) were determined using sets of commercial reagents (Labtest, Minas Gerais, Brazil). Negative control group received the same number of injections of PBS.

L. (L.) major = conditions: 2.5 and 5 mg/kg of body weight, intraperitoneal, 7 days after infection during 39 days; ref [11]; cited from earlier work
erythrocytes = conditions: after 24 h; ref [33]; cited from earlier work
HFF cell = conditions: ref [32]; cited from earlier work
[12] = Leishmania amazonensis, 24 h, read-out: IC50 L (L.) amazonensis Promastigote 24 h
[13] = Leishmania amazonensis, 48 h, read-out: IC50 L (L.) amazonensis Promastigote 48 h
[14] = 48 h, MTT, value (95% CI), read-out: CC50 Peritoneal murine macrophages 48 h
[15] = 20 mg/kg of body weight per day
[16] = 50 mg/kg of body weight per day
[17] = 50 mg/kg of body weight per day intraperitoneally

C[C@@H]1[C@H](O)[C@@H](C)/C=C/C=C/C=C/C=C/C=C/C=C/C=C/[C@H](O[C@@H]2O[C@H](C)[C@@H](O)[C@H](N)[C@@H]2O)C[C@@H]2O[C@](O)(C[C@@H](O)C[C@@H](O)[C@H](O)CC[C@@H](O)C[C@@H](O)CC(=O)O[C@H]1C)C[C@H](O)[C@H]2C(=O)O [AmpB, amphotericin B, reference compound]
IC50 [1, 12]: 0.27 µM | IC50 [1, 13]: 0.065 µM | hemolysis at 30 min, 100 µM [2]: 60% | hemolysis at 30 min, 200 µM [2]: 100% | IC50 [3]: 0.022 µM

COc1ccc(C(=O)/C=C/c2ccc(OCC=C(C)C)c(OC)c2)cc1 [LLA1 (1a), (E)-3-(3-methoxy-4-((3-methylbut-2-en-1-yl)oxy)phenyl)-1-(4-methoxyphenyl)prop-2-en-1-one]
IC50 [1, 12]: 74.9 µM | IC50 [1, 13]: 67.2 µM | CC50 at 48 h ([4]; peritoneal murine macrophages): > 400 µM

C=CC(C)(C)c1cc(/C=C/C(=O)c2ccc(O)cc2)c(OC)cc1O [LicoA (1), Licochalcone A]
IC50 [1, 12]: 20.3 µM | IC50 [1, 13]: 3.88 µM | reduction of parasite load in the liver and the spleen (L. (L.) donovani): > 96% | CC50 [5, 14]: 123 µM | CC50 at 48 h ([4]; read-out: CC50 Peritoneal murine macrophages 48 h): 123 µM | hemolytic activity [6]: about 30% | effect against Acetaminophen overdose-induced hepatotoxicity [7]: protective effect | IC50 ([8]; Leishmania infantum, Macrophage): 29.6 µM | effect on number of amastigotes (amastigotes): reduction in the number of amastigotes | IC50 ([9]; Leishmania infantum, 24 h, read-out: IC50 L (L.) infantum Promastigote 24 h): 41.1 µM | IC50 ([9]; Leishmania infantum, 48 h, read-out: IC50 L (L.) infantum Promastigote 48 h): 12.5 µM | reduction of parasite burden in liver (L. (L.) infantum; [15]): 15.27% | reduction of parasite burden in spleen (L. (L.) infantum; [15]): 20.69% | reduction of parasite burden in liver (L. (L.) infantum; [16]): 43.67% | reduction of parasite burden in spleen (L. (L.) infantum; [16]): 39.81% | survival rate (L. (L.) infantum): 100% | average body weight (L. (L.) infantum): no significant variation | toxicity, intraperitoneal ([10]; 100 mg/kg in rats and 150 mg/kg in hamsters, intraperitoneal): did not show any toxicity | signs of toxicity, oral ([10]; doses higher than 1,000 mg/kg, orally once a day for 2 weeks): did not cause any signs of toxicity | hepatotoxicity ([11]; LicoA-treated vs non-treated groups, serum aminotransaminases): No evidence of hepatotoxicity | serum levels of aminotransaminases (ALT, AST) ([11]; 20 mg/kg of body weight per day intraperitoneally): no significant alterations | serum levels of aminotransaminases (ALT, AST) [11, 17]: no significant alterations | lesion development (L. (L.) major): completely prevented lesion development | IC50 [3]: 36.8 µM | concentration inducing hemolysis (cell shrinkage and phospholipid scrambling of the cell membrane) (erythrocytes): higher than 30 μM | toxicity in HFF cell in vitro (HFF cell): low-toxicity

(E)-3-(4-hydroxy-3-methoxyphenyl)-1-(4-hydroxyphenyl)prop-2-en-1-one [LLA2 (2a)]
IC50 ([1]; 24 h, read-out: IC50 L (L.) amazonensis Promastigote 24 h): 301 µM | IC50 ([1]; 48 h, read-out: IC50 L (L.) amazonensis Promastigote 48 h): 287 µM | CC50 [5]: > 400 µM

meglumine antimoniate [MA, reference compound]
cytotoxicity at concentrations evaluated ([5]; 12.5–400 μM, 48 h): no cytotoxicity | CC50 [5, 14]: > 400 µM | IC50 ([8]; in peritoneal murine macrophages, value (95% CI)): > 400 µM | IC50 ([9]; 24 h, value (95% CI), read-out: IC50 L (L.) infantum Promastigote 24 h): > 400 µM | IC50 ([9]; 48 h, value (95% CI), read-out: IC50 L (L.) infantum Promastigote 48 h): > 400 µM | reduction of parasite burden in liver (L. (L.) infantum; [16]): 55.87% | reduction of parasite burden in spleen (L. (L.) infantum; [16]): 63.57% | survival rate (L. (L.) infantum): 100% | average body weight (L. (L.) infantum): no significant variation | serum levels of aminotransaminases (ALT, AST) [11, 17]: significant increase
